Source: patent US20240246977A1, “DEGRADATION OF BRUTON'S TYROSINE KINASE (BTK) BY CONJUGATION OF BTK INHIBITORS WITH E3 LIGASE LIGAND AND METHOD OF USE” (BeiGene Switzerland GmbH, priority 2021, published 2024)

Key:
HEK-293 cells = assay: HEK-293 cytotoxicity detection (CellTiter-Glo); type: cell-based; conditions: Homo sapiens, 72 h, 72 h incubation, CellTiter-Glo luminescence, read-out: HEK293
How it was run: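 HEK-293 cells exposed 72 h to 8 compounds doses (4-fold dilutions, top stock 5 mM at 500×) in 0.2% DMSO. Viability by CellTiter-Glo luminescence; inhibition normalised to DMSO high control and low control, IC50 from four-parameter curve fit.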

BTK = BTK (Homo sapiens, UniProt Q06187); assay: BTK cell degradation in TMD-8 cells, HTRF assay; type: cell-based; design: endogenous in cells; host or cells: TMD-8 cells; conditions: 6 h treatment, IC50 (DC50) of BTK degradation
Chain of BTK (Q06187 whole entry): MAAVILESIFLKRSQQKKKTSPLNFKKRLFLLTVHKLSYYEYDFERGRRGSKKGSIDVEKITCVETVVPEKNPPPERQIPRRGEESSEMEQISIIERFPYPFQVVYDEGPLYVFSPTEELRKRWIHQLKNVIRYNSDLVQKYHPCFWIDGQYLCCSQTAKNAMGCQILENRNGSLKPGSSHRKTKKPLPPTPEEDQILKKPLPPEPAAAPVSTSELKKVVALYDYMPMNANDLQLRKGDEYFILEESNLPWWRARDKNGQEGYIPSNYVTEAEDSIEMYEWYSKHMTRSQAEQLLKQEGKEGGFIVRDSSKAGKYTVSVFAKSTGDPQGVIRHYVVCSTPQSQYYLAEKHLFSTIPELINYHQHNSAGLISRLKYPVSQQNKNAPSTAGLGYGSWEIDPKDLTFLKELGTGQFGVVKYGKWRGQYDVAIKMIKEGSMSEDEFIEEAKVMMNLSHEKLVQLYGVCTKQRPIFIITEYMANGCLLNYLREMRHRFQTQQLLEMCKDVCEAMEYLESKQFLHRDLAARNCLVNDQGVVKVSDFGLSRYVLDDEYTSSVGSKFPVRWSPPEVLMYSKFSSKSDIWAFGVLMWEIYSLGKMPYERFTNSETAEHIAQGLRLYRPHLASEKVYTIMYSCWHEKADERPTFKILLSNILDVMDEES
How it was run: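 BTK levels read by HTRF in lysates of TMD-8 cells exposed to compounds for 6 h, eight concentrations at 6-fold steps in 0.2% DMSO. Percent degradation versus DMSO and low controls was fitted with a four-parameter equation to give DC50; Dmax is maximal degradation.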

Row | DC50 (BTK) [nM] | SMILES | IC50 (HEK-293 cells) [nM]
1 | 2.9 | Cc1c(C(=O)Nc2nccs2)ccc(-c2nn3c(c2C(N)=O)Nc2ccc(N4CCN(CC5CCN(c6ccc(N7CCC(=O)NC7=O)cc6)CC5)CC4)cc2CC3)c1F [Example B83, 7-(4-((1-(4-(2,4-dioxotetrahydropyrimidin-1(2H)-yl)phenyl)piperidin-4-yl)methyl)piperazin-1-yl)-2-(2-fluoro-3-methyl-4-(thiazol-2-ylcarbamoyl)phenyl)-9,10-dihydro-4H-benzo[d]pyrazolo[1,5-a][1,3]diazepine-3-carboxamide] | > 10000
2 | 2.32 | Cc1c(C(=O)Nc2ncn(C)n2)ccc(-c2nn3c(c2C(N)=O)Nc2ccc(N4CCN(CC5CCN(c6ccc(N7CCC(=O)NC7=O)cc6)CC5)CC4)cc2CC3)c1F [Example B84, 7-(4-((1-(4-(2,4-dioxotetrahydropyrimidin-1(2H)-yl)phenyl)piperidin-4-yl)methyl)piperazin-1-yl)-2-(2-fluoro-3-methyl-4-((1-methyl-1H-1,2,4-triazol-3-yl)carbamoyl)phenyl)-9,10-dihydro-4H-benzo[d]pyrazolo[1,5-a][1,3]diazepine-3-carboxamide] | > 10000
3 | 1.87 | Cc1c(C(=O)Nc2nc(C(F)(F)F)n[nH]2)ccc(-c2nn3c(c2C(N)=O)Nc2ccc(N4CCN(CC5CCN(c6ccc(N7CCC(=O)NC7=O)cc6)CC5)CC4)cc2CC3)c1F [Example B85, 7-(4-((1-(4-(2,4-dioxotetrahydropyrimidin-1(2H)-yl)phenyl)piperidin-4-yl)methyl)piperazin-1-yl)-2-(2-fluoro-3-methyl-4-((3-(trifluoromethyl)-1H-1,2,4-triazol-5-yl)carbamoyl)phenyl)-9,10-dihydro-4H-benzo[d]pyrazolo[1,5-a][1,3]diazepine-3-carboxamide] | > 10000
4 | 4.37 | Cc1c(C(=O)Nc2cc(C)n(C)n2)ccc(-c2nn3c(c2C(N)=O)Nc2ccc(N4CCN(CC5CCN(c6ccc(N7CCC(=O)NC7=O)cc6)CC5)CC4)cc2CC3)c1F [Example B86, 2-(4-((1,5-dimethyl-1H-pyrazol-3-yl)carbamoyl)-2-fluoro-3-methylphenyl)-7-(4-((1-(4-(2,4-dioxotetrahydropyrimidin-1(2H)-yl)phenyl)piperidin-4-yl)methyl)piperazin-1-yl)-9,10-dihydro-4H-benzo[d]pyrazolo[1,5-a][1,3]diazepine-3-carboxamide] | > 10000
5 | 0.591 | Cc1c(C(=O)Nc2cn(C)cn2)ccc(-c2nn3c(c2C(N)=O)Nc2ccc(N4CCN(CC5CCN(c6ccc(N7CCC(=O)NC7=O)cc6)CC5)CC4)cc2CC3)c1F [Example B87, 7-(4-((1-(4-(2,4-dioxotetrahydropyrimidin-1(2H)-yl)phenyl)piperidin-4-yl)methyl)piperazin-1-yl)-2-(2-fluoro-3-methyl-4-((1-methyl-1H-imidazol-4-yl)carbamoyl)phenyl)-9,10-dihydro-4H-benzo[d]pyrazolo[1,5-a][1,3]diazepine-3-carboxamide] | > 10000
6 | 1.63 | Cc1c(C(=O)Nc2cn(C)cn2)ccc(-c2nn3c(c2C(N)=O)Nc2ccc(N4CCN(CCc5cc(F)c(C6CCC(=O)NC6=O)c(F)c5)CC4)cc2CC3)c1F (stereo not shown) [Example B88, 7-(4-(4-(2,6-dioxopiperidin-3-yl)-3,5-difluorophenethyl)piperazin-1-yl)-2-(2-fluoro-3-methyl-4-((1-methyl-1H-imidazol-4-yl)carbamoyl)phenyl)-9,10-dihydro-4H-benzo[d]pyrazolo[1,5-a][1,3]diazepine-3-carboxamide] | > 10000
7 | 0.706 | Cc1c(C(=O)Nc2cn(C)cn2)ccc(-c2nn3c(c2C(N)=O)Nc2ccc(N4CCN(CCc5cccc6c5oc(=O)n6C5CCC(=O)NC5=O)CC4)cc2CC3)c1F (stereo not shown) [Example B90, 7-(4-(2-(3-(2,6-dioxopiperidin-3-yl)-2-oxo-2,3-dihydrobenzo[d]oxazol-7-yl)ethyl)piperazin-1-yl)-2-(2-fluoro-3-methyl-4-((1-methyl-1H-imidazol-4-yl)carbamoyl)phenyl)-9,10-dihydro-4H-benzo[d]pyrazolo[1,5-a][1,3]diazepine-3-carboxamide] | > 10000
8 | 1.36 | Cc1c(C(=O)Nc2cn(C)cn2)ccc(-c2nn3c(c2C(N)=O)Nc2ccc(N4CCN(C(=O)C5CCN(c6ccc(N7CCC(=O)NC7=O)cc6)CC5)CC4)cc2CC3)c1F [Example B91, 7-(4-(1-(4-(2,4-dioxotetrahydropyrimidin-1(2H)-yl)phenyl)piperidine-4-carbonyl)piperazin-1-yl)-2-(2-fluoro-3-methyl-4-((1-methyl-1H-imidazol-4-yl)carbamoyl)phenyl)-9,10-dihydro-4H-benzo[d]pyrazolo[1,5-a][1,3]diazepine-3-arboxamide] | > 10000
9 | 1.86 | Cc1c(C(=O)Nc2cn(C)cn2)ccc(-c2nn3c(c2C(N)=O)Nc2ccc(N4CCN(C[C@H]5CCN(c6ccc(N7CCC(=O)NC7=O)cc6)C5)CC4)cc2CC3)c1F [Example B92, (R)-7-(4-((1-(4-(2,4-dioxotetrahydropyrimidin-1(2H)-yl)phenyl)pyrrolidin-3-yl)methyl)piperazin-1-yl)-2-(2-fluoro-3-methyl-4-((1-methyl-1H-imidazol-4-yl)carbamoyl)phenyl)-9,10-dihydro-4H-benzo[d]pyrazolo[1,5-a][1,3]diazepine-3-carboxamide] | > 10000
10 | 3.77 | Cc1c(C(=O)Nc2ncnn2C)ccc(-c2nn3c(c2C(N)=O)Nc2ccc(N4CCN(CC5CCN(c6ccc(N7CCC(=O)NC7=O)cc6)CC5)CC4)cc2CC3)c1F [Example B93, 7-(4-((1-(4-(2,4-dioxotetrahydropyrimidin-1(2H)-yl)phenyl)piperidin-4-yl)methyl)piperazin-1-yl)-2-(2-fluoro-3-methyl-4-((1-methyl-1H-1,2,4-triazol-5-yl)carbamoyl)phenyl)-9,10-dihydro-4H-benzo[d]pyrazolo[1,5-a][1,3]diazepine-3-carboxamide] | > 10000
11 | 0.378 | Cc1c(C(=O)Nc2cscn2)ccc(-c2nn3c(c2C(N)=O)Nc2ccc(N4CCN(CC5CCN(c6ccc(N7CCC(=O)NC7=O)cc6)CC5)CC4)cc2CC3)c1F [Example B94, 7-(4-((1-(4-(2,4-dioxotetrahydropyrimidin-1(2H)-yl)phenyl)piperidin-4-yl)methyl)piperazin-1-yl)-2-(2-fluoro-3-methyl-4-(thiazol-4-ylcarbamoyl)phenyl)-9,10-dihydro-4H-benzo[d]pyrazolo[1,5-a][1,3]diazepine-3-carboxamide] | > 10000
12 | 0.586 | Cc1c(C(=O)Nc2cscn2)ccc(-c2nn3c(c2C(N)=O)Nc2ccc(N4CCN(CCc5cccc6c5oc(=O)n6C5CCC(=O)NC5=O)CC4)cc2CC3)c1F (stereo not shown) [Example B96, 7-(4-(2-(3-(2,6-dioxopiperidin-3-yl)-2-oxo-2,3-dihydrobenzo[d]oxazol-7-yl)ethyl)piperazin-1-yl)-2-(2-fluoro-3-methyl-4-(thiazol-4-ylcarbamoyl)phenyl)-9,10-dihydro-4H-benzo[d]pyrazolo[1,5-a][1,3]diazepine-3-carboxamide] | 116
13 | 2.11 | Cc1c(C(=O)Nc2cscn2)ccc(-c2nn3c(c2C(N)=O)Nc2ccc(N4CCN(CC5CN(c6ccc(N7CCC(=O)NC7=O)cc6)C5)CC4)cc2CC3)c1F [Example B97, 7-(4-((1-(4-(2,4-dioxotetrahydropyrimidin-1(2H)-yl)phenyl)azetidin-3-yl)methyl)piperazin-1-yl)-2-(2-fluoro-3-methyl-4-(thiazol-4-ylcarbamoyl)phenyl)-9,10-dihydro-4H-benzo[d]pyrazolo[1,5-a][1,3]diazepine-3-carboxamide] | > 10000
14 | 1.1 | Cc1c(C(=O)Nc2cscn2)ccc(-c2nn3c(c2C(N)=O)Nc2ccc(N4CCN(CC5CCN(c6ccc(CN7CCC(=O)NC7=O)cc6)CC5)CC4)cc2CC3)c1F [Example B98, 7-(4-((1-(4-((2,4-dioxotetrahydropyrimidin-1(2H)-yl)methyl)phenyl)piperidin-4-yl)methyl)piperazin-1-yl)-2-(2-fluoro-3-methyl-4-(thiazol-4-ylcarbamoyl)phenyl)-9,10-dihydro-4H-benzo[d]pyrazolo[1,5-a][1,3]diazepine-3-carboxamide] | > 10000
15 | 2.72 | Cc1c(C(=O)Nc2cscn2)ccc(-c2nn3c(c2C(N)=O)Nc2ccc(N4CCN(CC5CCN(c6cccc(CN7CCC(=O)NC7=O)c6)CC5)CC4)cc2CC3)c1F [Example B99, 7-(4-((1-(3-((2,4-dioxotetrahydropyrimidin-1(2H)-yl)methyl)phenyl)piperidin-4-yl)methyl)piperazin-1-yl)-2-(2-fluoro-3-methyl-4-(thiazol-4-ylcarbamoyl)phenyl)-9,10-dihydro-4H-benzo[d]pyrazolo[1,5-a][1,3]diazepine-3-carboxamide] | > 10000
16 | 2.14 | Cc1c(C(=O)Nc2cscn2)ccc(-c2nn3c(c2C(N)=O)Nc2ccc(N4CCN(C5CC(c6ccc(N[C@@H]7CCC(=O)NC7=O)cc6)C5)CC4)cc2CC3)c1F (stereo partly drawn) [Example B100, (R)-7-(4-(3-(4-((2,6-dioxopiperidin-3-yl)amino)phenyl)cyclobutyl)piperazin-1-yl)-2-(2-fluoro-3-methyl-4-(thiazol-4-ylcarbamoyl)phenyl)-9,10-dihydro-4H-benzo[d]pyrazolo[1,5-a][1,3]diazepine-3-carboxamide] | 34.1
17 | 2.42 | Cc1c(C(=O)Nc2cscn2)ccc(-c2nn3c(c2C(N)=O)Nc2ccc(N4CCN(C5CC(c6ccc(N[C@H]7CCC(=O)NC7=O)cc6)C5)CC4)cc2CC3)c1F (stereo partly drawn) [Example B101, (S)-7-(4-(3-(4-((2,6-dioxopiperidin-3-yl)amino)phenyl)cyclobutyl)piperazin-1-yl)-2-(2-fluoro-3-methyl-4-(thiazol-4-ylcarbamoyl)phenyl)-9,10-dihydro-4H-benzo[d]pyrazolo[1,5-a][1,3]diazepine-3-carboxamide] | 32.3
